Patent US9686971B2, “Methods for testing anti-thrombotic agents” (The Trustees of Columbia University in the City of New York, priority 2006, dated 2017)
Residue numbers refer to the chain shown, from its start. Entries after “also recorded” stand apart in the source; their conditions may differ.

Key:
human platelets [1] = assay: Ex vivo platelet adhesion, human whole blood over immobilized plasma VWF or rVWF-A1, 1600 s^-1; assay type: cell-based; conditions: for human platelet deposition as compared with same-species controls / human platelet accumulation on immobilized protein: human whole blood; for human platelet deposition as compared with same-species controls: 1600 s^-1, 4 min; for human platelet accumulation on immobilized protein: 1600 s^-1; for translocation velocities of human platelets: mean±s.e.m, n=4
Description: (§1) Experiments were performed in a parallel-plate flow chamber as previously described (Offermanns, S. (2006) Circ. Res. 99, 1293-1304). For studies involving plasma VWF, a polyclonal anti-VWF antibody (Dako) was absorbed overnight (4° C.) to a six well tissue culture plate. Subsequently, the plate was washed and non-specific interactions blocked by the addition of TBS containing 3% BSA, pH 7.4 (1 h, 37° C.). Human or murine plasma obtained from heparinized whole blood was added and the plates placed at 37° C. for an additional 2 h. Generation, purification, and surface-immobilization of recombinant VWF-A1 proteins was performed as previously described (Doggett, T. A. et al. Biophys. J. 83, 194-205 (2002)). Both human and murine VWF-A1 constructs consist of amino acid residues 1238 to 1471, with a single intra-disulfide bond formed between residues 1272 and 1458 and were generated in bacteria. Citrated whole blood (150 μl) collected via cardiac puncture from anesthetized homozygous VWF^1326R>H or WT mice or from venopuncture from human volunteers was perfused over the immobilized substrates at a wall shear rate of 1600 s^−1 for 4 min, followed by washing with Tyrode's buffer under the identical flow conditions. The number of platelets attached per unit area (0.07 mm^2) and translocation velocities were determined by off-line analysis (Image-Pro Plus, Media Cybernetics). For GPIbα inhibition studies, the function-blocking mAb 6D1 (20 μg/ml) or mAb SZ2 (20 μg/ml; Beckman Coulter) was added to anticoagulated human blood for 30 min prior to use. Experiments were performed in triplicate on two separate days. An ELISA was used to ensure equivalent coating concentration of plasma and recombinant proteins (Denis, C. et al. (1998) Proc. Natl. Acad. Sci. USA 95, 9524-9529).

[2] = in vivo; cited from earlier work
murine platelets [3] = assay: Ristocetin-induced platelet aggregation assay (RIPA), murine platelet rich plasma; assay type: cell-based, mouse
Description: In a Ristocetin-induced platelet aggregation assays, platelet GPIb alpha binding to wild type human VWF or mouse VWF was analyzed in the absence or presence of ristocetin as described by Inbal, et al. (1993, Thromb. Haemost., 70:1058-1062). In this method, platelet rich plasma (PRP) is placed in a clear cuvette containing a stir bar and inserted into the aggregometer. Platelet aggregation is induced by the addition of ristocetin. […] In fact, only at concentrations of ≧2.5 mg/ml was there any evidence of murine platelet aggregation observed (˜30%, FIG. 10C).

human platelets [4] = conditions: cited from earlier work
GPIb alpha = biological target: T1, GPIb alpha (Homo sapiens, UniProt P07359); assay: Transient tether kinetics of VWF-A1 coated microspheres on surface-immobilized human platelets; assay type: binding; conditions: VWF-A1 coated beads, wall shear stress 1 dyn cm^−2
T1 construct: enables evaluation of GPIb alpha in its native form (i.e. correct orientation and proper post-translational modification); endogenous in cells; host or cells: human platelets purified by gel filtration, immobilized on Fab fragments of mAb 7E3
Description: In flow assays involving protein-coated microspheres, human or murine platelets purified by gel filtration are incubated with 10 mM sodium azide (NaN3), 50 ng/ml prostaglandin E1, and 10 μm indomethacin (Sigma Immunochemicals, St. Louis, Mo.) to reduce the possibility of activation and potential alterations in expression and/or distribution of GPIb alpha on their surface. Platelets are subsequently allowed to settle in stasis on Fab fragments of monoclonal antibodies that recognize either human (i.e., mAb 7E3) or murine (i.e., mAb NAD-1) alpha IIb/β3 in order to form a reactive substrate. […] Platelet coverage of <10% will be bound in this manner can remain relatively unactivated for up to 30 min as evident by morphology on light microscopic examination (FIG. 7A) and lack of expression of P-selectin by fluorescence microscopy (FIG. 7B).
To reduce the possibility of multiple bond formation that would result in a prolongation in interaction times between the beads and immobilized platelets, the lowest site densities of VWF-A1 capable of supporting these brief interactions is used, a value we found to correspond to ˜30 molecules μm^2. […] The force acting on the tether bond was calculated from force balance equations as stated above and koff plotted as a function of these forces. […]

thrombus formation = conditions: mice; given the day before and 2 hours prior; cited from earlier work
murine platelets [5] = assay: In vitro parallel plate flow chamber platelet adhesion on recombinant VWF-A1, 800 s^-1, murine platelets; assay type: cell-based, mouse; conditions: wall shear rate 800 s^-1
Description: (§2) The protein was subsequently used in a series of in vitro flow chamber assays to assess function. Washed human or murine platelets (5×10^7/ml) were infused through a parallel plate flow chamber containing glass cover slips coated with either human VWF-A1 or mouse VWF-A1 protein (100 μg/ml final concentration) at a shear rate of 800 s^−1. After 5 min of continuous flow, adherent platelets were quantified.
In the case of the latter, the murine A1 fragment was inserted into pET-11b (Stratagene) and purified as previously described (53).
Support for this hypothesis is provided by mutagenesis studies. By analyzing the data obtained from the crystal structure of the murine VWF-A1 domain, we have identified several residues that may participate in interactions with GPIb alpha (FIG. 15C). Residue 1326 was initially chosen for study and was mutated to the corresponding amino acid at the identical location in its human counterpart (from Arg to His). Subsequently, the ability of murine and human platelets to interact with this mutant protein substrate was evaluated at a wall shear rate of 800 s^−1. Incorporation of a histidine for arginine at position 1326 in murine VWF-A1 reduced murine platelet adhesion by ˜5-fold and increased translocation velocities of cells by ˜7-fold as compared to the WT mouse protein (FIGS. 13A, 13B, 16A, and 16B). […]

human platelets [6] = assay: In vitro parallel plate flow chamber platelet adhesion on recombinant VWF-A1, 800 s^-1, human platelets; assay type: cell-based; conditions: wall shear rate 800 s^-1
Description: as §2
Support for this hypothesis is provided by mutagenesis studies. By analyzing the data obtained from the crystal structure of the murine VWF-A1 domain, we have identified several residues that may participate in interactions with GPIb alpha (FIG. 15C). Residue 1326 was initially chosen for study and was mutated to the corresponding amino acid at the identical location in its human counterpart (from Arg to His). Subsequently, the ability of murine and human platelets to interact with this mutant protein substrate was evaluated at a wall shear rate of 800 s^−1. Incorporation of a histidine for arginine at position 1326 in murine VWF-A1 reduced murine platelet adhesion by ˜5-fold and increased translocation velocities of cells by ˜7-fold as compared to the WT mouse protein (FIGS. 13A, 13B, 16A, and 16B). […] These studies support the hypothesis that from a structural and functional standpoint, mouse and human VWF-A1 are very similar.

murine platelets [7] = assay: Ex vivo platelet adhesion, murine whole blood over immobilized plasma VWF or rVWF-A1, 1600 s^-1; assay type: cell-based, mouse
Description: as §1, with “For GPIbα inhibition studies, the function-blocking mAb 6D1 (20 μg/ml) or mAb SZ2 (20 μg/ml; Beckman Coulter) was added to anticoagulated human blood for 30 min prior to use. Experiments were performed in triplicate on two separate days. An ELISA was used to ensure equivalent coating concentration of plasma and recombinant proteins (Denis, C. et al. (1998) Proc. Natl. Acad. Sci. USA 95, 9524-9529).” left out

T1 sequence (P07359 17-652): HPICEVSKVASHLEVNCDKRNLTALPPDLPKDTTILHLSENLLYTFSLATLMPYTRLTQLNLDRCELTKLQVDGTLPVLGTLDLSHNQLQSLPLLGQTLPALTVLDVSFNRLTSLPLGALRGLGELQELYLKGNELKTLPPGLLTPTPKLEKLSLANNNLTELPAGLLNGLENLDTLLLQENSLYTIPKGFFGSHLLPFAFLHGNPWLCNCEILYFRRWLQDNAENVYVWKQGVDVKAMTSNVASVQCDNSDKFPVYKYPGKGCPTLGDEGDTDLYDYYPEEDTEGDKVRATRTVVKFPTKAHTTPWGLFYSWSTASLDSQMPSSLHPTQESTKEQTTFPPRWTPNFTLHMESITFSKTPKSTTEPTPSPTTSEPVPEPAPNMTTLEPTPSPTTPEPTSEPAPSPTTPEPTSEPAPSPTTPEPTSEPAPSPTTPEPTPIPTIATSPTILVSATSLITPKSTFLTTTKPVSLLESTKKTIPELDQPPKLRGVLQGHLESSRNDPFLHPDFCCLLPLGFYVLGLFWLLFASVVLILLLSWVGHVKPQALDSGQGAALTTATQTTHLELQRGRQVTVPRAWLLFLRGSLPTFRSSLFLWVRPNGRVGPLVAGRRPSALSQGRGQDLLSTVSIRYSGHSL

For “murine plasma VWF: surface-bound wild type murine plasma VWF”, the “human platelet deposition as compared with same-species controls” value (human platelets [1]) was 10%.

For “murine plasma VWF^1326R>H: plasma VWF obtained from mice homozygous for VWF^1326R>H”, the “human platelet accumulation on immobilized protein” value (shortened to “human platelet accumulation”) (human platelets [1]) was “comparable with its human counterpart” and the “translocation velocities of human platelets” value (human platelets [1]) was 3.5±0.1 μm/sec.

For `CCCCS(=O)(=O)N[C@@H](Cc1ccc(OCCCCC2CCNCC2)cc1)C(=O)O` [Tirofiban], the plasma half-life [2] is listed as “approximately 2 hours”.

For ristocetin, the “effect on murine platelets at the concentration that agglutinates human platelets” value (murine platelets [3]; murine PRP, ristocetin ~1.0 mg/ml) is listed as “no such effect; also recorded: had no effect”, the platelet aggregation (murine platelets [3]; murine PRP, ristocetin ≧2.5 mg/ml) is listed as ~30% and the “concentration known to cause agglutination of human platelets” value (human platelets [4]) is listed as ~1.0 mg/mL.

For thrombin, the platelet aggregation (murine platelets [3]; incubation of murine PRP with thrombin) was > 90%.

In the case of “WT human VWF-A1: wild type recombinant human VWF-A1 domain”, the koff (GPIb alpha) is reported as 6.5 s⁻¹.

In the case of `COC(=O)[C@H](c1ccccc1Cl)N1CCc2sccc2C1` [clopidogrel], the “maximal effective dose to reduce thrombus size and delay its formation” value (thrombus formation) is given as 50 mg/kg.

For “human plasma VWF: native human plasma VWF”, the “translocation velocities of human platelets” value (human platelets [1]) was 3.2±0.1 μm/sec.

B1: murine VWF-A1 1326R>H: recombinant mouse VWF-A1 domain with HIS for ARG at residue 1326 (protein)
chain: EDTPEPPLHNFYCSKLLDLVFLLDGSSMLSEAEFEVLKAFVVGMMERLHISQKRIRVAVVEYHDGSHAYLELKARKRPSELRRITSQIKYTGSQVASTSEVLKYTLFQIFGKIDRPEASHITLLLTASQEPPRMARNLVRYVQGLKKKKVIVIPVGIGPHASLKQIRLIEKQAPENKAFLLSGVDELEQRRDEIVSYLCDLAPEAPAPTQPPQVAHVTVSP
With B1 the “increase of translocation velocities of murine platelets compared to WT mouse protein” value (murine platelets [5]) was ~7 fold, the “reduction of murine platelet adhesion compared to WT mouse protein” value (murine platelets [5]) was ~5 fold and the “human platelet interactions with the protein substrate” value (human platelets [6]) was “comparable to that of WT human VWF-A1”. The “human platelet accumulation” value (human platelets [1]) was “comparable to its wild-type (WT) human counterpart” and the “reduction of mouse platelet adhesion” value (murine platelets [7]) was ~75%.

B2: murine rVWF-A1: recombinant A1 domain of murine VWF, residues 1238 to 1471 (protein)
chain: QEPGGLVAPPTDAPVSSTTPYVEDTPEPPLHNFYCSKLLDLVFLLDGSSMLSEAEFEVLKAFVVGMMERLHISQKRIRVAVVEYHDGSRAYLELKARKRPSELRRITSQIKYTGSQVASTSEVLKYTLFQIFGKIDRPEASHITLLLTASQEPPRMARNLVRYVQGLKKKKVIVIPVGIGPHASLKQIRLIEKQAPENKAFLLSGVDELEQRRDEIVSYLCDLAPEAPAPTQPP
modifications: left off: small tags and cut ends
For B2, the “human platelet deposition as compared with same-species controls” value (human platelets [1]) was 25%.

B3: murine rVWF-A1 1330E>G: murine rVWF-A1 with human residue at position 1330 (E>G) (protein)
chain: B2 chain with E93G
modifications: left off: small tags and cut ends
With B3 the “human platelet accumulation” value (human platelets [1]) was “failed to promote the interaction”.

B4: murine rVWF-A1 1370S>G: murine rVWF-A1 with human residue at position 1370, printed S>G (protein)
chain: B2 chain with G133S
modifications: left off: small tags and cut ends
notes: murine rVWF-A1 with human residue at position 1370, printed S>G
For B4, the “human platelet accumulation” value (human platelets [1]) was “failed to promote the interaction”.
